In patent US20240090503A1, “FUNGICIDAL OXADIAZOLES AND THEIR MIXTURES” (FMC CORPORATION, priority 2020, published 2024):
Marks after values point to notes of the source that are not given here.

Columns and labels:
Type in all cases: in vivo
[1] = test system: Zymoseptoria tritici (the causal agent of wheat leaf blotch); test: Test B: preventive spray on wheat seedlings, wheat leaf blotch, visual disease rating; settings: wheat seedlings
Text: General protocol for preparing test suspensions for Tests A-D: the test compounds were first dissolved in acetone in an amount equal to 3% of the final volume and then suspended at the desired concentration (in ppm) in acetone and purified water (50/50 mix by volume) containing 250 ppm of the surfactant PEG400 (polyhydric alcohol esters). The resulting test suspensions were then used in Tests A-D.
The test suspension was sprayed to the point of run-off on wheat seedlings. The following day the seedlings were inoculated with a spore suspension of Zymoseptoria tritici (the causal agent of wheat leaf blotch) and incubated in a saturated atmosphere at 24° C. for 48 h, and then moved to a growth chamber at 20° C. for 17 days, after which time visual disease ratings were made.
The test results for Tests A-C presented in Table A below for compounds of Formula 1 illustrate the fungicidal activity of component (a) contributing to the plant disease control utility of compositions comprising component (a) in combination with component (b) according to the present invention. In the Table, a rating of 100 indicates 100% disease control and a rating of 0 indicates no disease control (relative to the controls). A dash (-) indicates the compound was not tested. The test suspensions were sprayed at the concentration listed in the column “Rate in ppm”, unless otherwise indicated. An asterisk “*” next to the rating indicates a 250 ppm test suspension was used, a double asterisk “**” next to the rating indicates a 100 ppm test suspension was used, and a triple asterisk “***” next to the rating indicates a 50 ppm test suspension was used.

[2] = test system: Phakopsora pachyrhizi (the causal agent of Asian soybean rust); test: Test A: preventive spray on soybean seedlings, Asian soybean rust, visual disease rating; settings: soybean seedlings; for pest or weed control at 50 µg/mL: test suspension 50 ppm
How it was run: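 Preventive test: soybean seedlings received a run-off spray of compound suspended at the set ppm in 50/50 acetone/water plus 250 ppm PEG400, and one day later a P. pachyrhizi spore inoculum. Visual scoring (0 none to 100 full disease control) followed 24 h saturated incubation and 8 days' growth chamber, both at 22° C.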

[3] = test system: Puccinia recondita f. sp. tritici (the causal agent of wheat leaf rust); test: Test C: preventive spray on wheat seedlings, wheat leaf rust, visual disease rating; settings: wheat seedlings; for pest or weed control at 50 µg/mL: test suspension 50 ppm
How it was run: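 Wheat seedlings sprayed to run-off with compound in acetone/water (50/50) with 250 ppm PEG400, then inoculated with spores the following day. After 24 h saturated humidity at 20° C. and 6 days in growth chamber at 20° C., disease rated visually as % control relative to untreated controls.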

[4] = test suspension 10 ppm, 100 = 100% disease control, 0 = no control
[5] = 250 ppm test suspension, 100 = 100% disease control
[6] = 10 ppm test suspension, 100 = 100% disease control, 0 = no control
[7] = Zymoseptoria tritici, 456 h, test suspension 250 ppm
[8] = Phakopsora pachyrhizi, 216 h, test suspension 250 ppm
[9] = Puccinia recondita, 168 h, test suspension 250 ppm
[10] = 50 ppm test suspension, 100 = 100% disease control, 0 = no control

Cn1c(C(F)(F)F)nn(CCc2ccc(-c3noc(C(F)(F)F)n3)cc2)c1=O [compound 239]
Test B disease control rating ([1]; test suspension 250 ppm): 0%
Test A disease control rating ([2]; test suspension 250 ppm): 100%
Test C disease control rating ([3]; test suspension 250 ppm): 100%

COC(=O)c1ncn(Cc2ccc(-c3noc(C(F)(F)F)n3)cc2)n1 [compound 139]
Test B disease control rating ([1]; test suspension 255 ppm): 62%
Test A disease control rating ([2]; test suspension 255 ppm): 100%
Test C disease control rating ([3]; test suspension 255 ppm): 100%

CCCOC(=O)c1cnn(COc2ccc(-c3noc(C(F)(F)F)n3)cc2)c1 [compound 217]
Test B disease control rating ([1]; test suspension 250 ppm): 35* %
Test A disease control rating [2, 4]: 100%
Test C disease control rating ([3]; test suspension 10 ppm): 86%

O=C(CCl)COC(=O)c1cnn(Cc2ccc(-c3noc(C(F)(F)F)n3)cc2)c1 [compound 495]
Test B disease control rating [1, 5]: 43* %
Test A disease control rating [2, 6]: 100%
Test C disease control rating [3, 6]: 0%

O=C(c1coc(Cc2ccc(-c3noc(C(F)(F)F)n3)cc2)n1)N1CCC(F)(F)C1 [Compound 402, (3,3-difluoro-1-pyrrolidinyl)[2-[[4-[5-(trifluoromethyl)-1,2,4-oxadiazol-3-yl]phenyl]methyl]-4-oxazolyl]methanone]
pest or weed control at 250 ppm ([1]; Zymoseptoria tritici, 456 h, 250 ppm test suspension, 100 = 100% disease control): 96%
pest or weed control at 10 ppm ([2]; Phakopsora pachyrhizi, 216 h, 10 ppm test suspension, 100 = 100% disease control, 0 = no control): 100%
pest or weed control at 10 ppm ([3]; Puccinia recondita, 168 h, 10 ppm test suspension, 100 = 100% disease control, 0 = no control): 90%

Cn1c(C2CC2)nn(Cc2ccc(-c3noc(C(F)(F)F)n3)cc2)c1=O [compound 236]
Test B disease control rating ([1]; test suspension 250 ppm): 83%
Test A disease control rating ([2]; test suspension 250 ppm): 100%
Test C disease control rating ([3]; test suspension 250 ppm): 100%

O=C1C(=O)N(Cc2ccc(-c3noc(C(F)(F)F)n3)cc2)c2ccccc21 [compound 87]
Test B disease control rating ([1]; test suspension 250 ppm): 82%
Test A disease control rating ([2]; test suspension 250 ppm): 100%
Test C disease control rating ([3]; test suspension 250 ppm): 100%

COC(=O)c1coc(Cc2ccc(-c3noc(C(F)(F)F)n3)cc2)n1 [Compound 490]
Test B disease control rating [1, 5]: 94* %
Test A disease control rating [2, 6]: 100%
Test C disease control rating [3, 6]: 74%

O=C(NCC(F)(F)F)c1csc(COc2ccc(-c3noc(C(F)(F)F)n3)cc2)n1 [compound 470]
Test B disease control rating [1, 5]: 0* %
Test A disease control rating [2, 6]: 100%
Test C disease control rating [3, 6]: 94%

CCOC(=O)c1cnn(Cc2cccc(-c3noc(C(F)(F)F)n3)c2)c1 [compound 276]
pest or weed control at 250 µg/mL [1, 7]: 35%
pest or weed control at 50 µg/mL ([2]; Phakopsora pachyrhizi, 216 h): 100%
pest or weed control at 50 µg/mL ([3]; Puccinia recondita, 168 h): 80%

CC(C)NC(=O)c1coc(Cc2ccc(-c3noc(C(F)(F)F)n3)cc2)n1 [compound 259]
Test B disease control rating ([1]; test suspension 250 ppm): 99* %
Test A disease control rating [2, 4]: 100%
Test C disease control rating ([3]; test suspension 10 ppm): 99%

O=C(NC1CSC1)c1coc(Cc2ccc(-c3noc(C(F)(F)F)n3)cc2)n1 [compound 329]
Test B disease control rating ([1]; test suspension 250 ppm): 98* %
Test A disease control rating [2, 4]: 100%
Test C disease control rating ([3]; test suspension 10 ppm): 98%

O=c1oc2ccccc2n1Cc1ccc(-c2noc(C(F)(F)F)n2)cc1 [compound 118]
Test B disease control rating ([1]; test suspension 250 ppm): 0%
Test A disease control rating ([2]; test suspension 250 ppm): 100%
Test C disease control rating ([3]; test suspension 250 ppm): 98%

O=C(c1ccc(Cc2ccc(-c3noc(C(F)(F)F)n3)cc2)o1)C(F)(F)F [compound 450]
Test B disease control rating [1, 5]: 41* %
Test A disease control rating [2, 6]: 94%
Test C disease control rating [3, 6]: 0%

Cc1nc(COc2ccc(-c3noc(C(F)(F)F)n3)cc2)cs1 [compound 298]
Test B disease control rating ([1]; test suspension 250 ppm): 73* %
Test A disease control rating [2, 4]: 50%
Test C disease control rating ([3]; test suspension 10 ppm): 0%

COc1ccc2c(C#N)nn(Cc3ccc(-c4noc(C(F)(F)F)n4)cc3)c2c1 [compound 120]
Test B disease control rating ([1]; test suspension 260 ppm): 0%
Test A disease control rating ([2]; test suspension 260 ppm): 99%
Test C disease control rating ([3]; test suspension 260 ppm): 68%

O=C(NCC(F)(F)F)c1coc(Cc2ccc(-c3noc(C(F)(F)F)n3)cc2)c1 [compound 291]
Test B disease control rating ([1]; test suspension 250 ppm): 13* %
Test A disease control rating [2, 4]: 100%
Test C disease control rating ([3]; test suspension 10 ppm): 97%

O=C1c2ccccc2C(=O)N1Cc1ccc(-c2noc(C(F)(F)F)n2)cc1 [Compound 90, 2-[[4-[5-(trifluoromethyl)-1,2,4-oxadiazol-3-yl]phenyl]methyl]-1H-isoindole-1,3(2H)-dione]
pest or weed control at 250 µg/mL [1, 7]: 33%
pest or weed control at 250 µg/mL [2, 8]: 100%
pest or weed control at 250 µg/mL [3, 9]: 99%

CN(C)N=Cc1cnn(Cc2ccc(-c3noc(C(F)(F)F)n3)cc2)c1 [compound 19]
Test B disease control rating ([1]; test suspension 250 ppm): 100%
Test A disease control rating ([2]; test suspension 250 ppm): 100%
Test C disease control rating ([3]; test suspension 250 ppm): 100%

CON=Cc1cnn(Cc2ccc(-c3noc(C(F)(F)F)n3)cc2)c1 [compound 25]
Test B disease control rating ([1]; test suspension 250 ppm): 86* %
Test A disease control rating ([2]; test suspension 250 ppm): 100%
Test C disease control rating ([3]; test suspension 250 ppm): 100%

FC(F)(F)c1nc(-c2ccc(Cn3ccc4cccnc43)cc2)no1 [compound 86]
Test B disease control rating ([1]; test suspension 250 ppm): 89%
Test A disease control rating ([2]; test suspension 250 ppm): 100%
Test C disease control rating ([3]; test suspension 250 ppm): 100%

COCCOC(=O)c1cnn(Cc2ccc(-c3noc(C(F)(F)F)n3)cc2)c1 [compound 59]
Test B disease control rating ([1]; test suspension 100 ppm (** next to rating)): 58** %
Test A disease control rating [2, 4]: 100%
Test C disease control rating ([3]; test suspension 10 ppm): 100%

O=C(NC1CC1)c1csc(Cc2ccc(-c3noc(C(F)(F)F)n3)cc2)n1 [compound 342]
Test B disease control rating ([1]; test suspension 250 ppm): 99* %
Test A disease control rating [2, 4]: 100%
Test C disease control rating ([3]; test suspension 10 ppm): 100%

COCCNC(=O)c1ccc(Cc2ccc(-c3noc(C(F)(F)F)n3)cc2)cc1 [Compound 282]
Test B disease control rating ([1]; test suspension 250 ppm): 94* %
Test A disease control rating [2, 4]: 100%
Test C disease control rating ([3]; test suspension 10 ppm): 97%

O=C(NCCn1cccn1)c1csc(COc2ccc(-c3noc(C(F)(F)F)n3)cc2)n1 [compound 471]
Test B disease control rating [1, 5]: 15* %
Test A disease control rating [2, 6]: 77%
Test C disease control rating [3, 6]: 80%

CCOC(=O)c1csc(Cc2ccc(-c3noc(C(F)(F)F)n3)cc2)n1 [compound 344]
Test B disease control rating ([1]; test suspension 250 ppm): 96* %
Test A disease control rating [2, 4]: 100%
Test C disease control rating ([3]; test suspension 10 ppm): 93%

Fc1cccc2c1cnn2Cc1ccc(-c2noc(C(F)(F)F)n2)cc1 [compound 125]
Test B disease control rating ([1]; test suspension 260 ppm): 55%
Test A disease control rating ([2]; test suspension 260 ppm): 100%
Test C disease control rating ([3]; test suspension 260 ppm): 100%

CC(C)COC(=O)c1coc(Cc2ccc(-c3noc(C(F)(F)F)n3)cc2)n1 [compound 335]
Test B disease control rating ([1]; test suspension 250 ppm): 73* %
Test A disease control rating [2, 4]: 100%
Test C disease control rating ([3]; test suspension 10 ppm): 94%

N#Cc1cnn(Cc2ccc(-c3noc(C(F)(F)F)n3)cc2)c1 [Compound 95, 1-[[4-[5-(trifluoromethyl)-1,2,4-oxadiazol-3-yl]phenyl]methyl]-1H-pyrazole-4-carbonitrile]
pest or weed control at 250 µg/mL [1, 7]: 87%
pest or weed control at 250 µg/mL [2, 8]: 100%
pest or weed control at 250 µg/mL [3, 9]: 100%

CN(C)C(=O)C1=NOC(CCOc2cccc(-c3noc(C(F)(F)F)n3)c2)C1 (stereo not drawn) [compound 224]
pest or weed control at 250 µg/mL [1, 7]: 81%
pest or weed control at 50 µg/mL ([2]; Phakopsora pachyrhizi, 216 h): 100%
pest or weed control at 50 µg/mL ([3]; Puccinia recondita, 168 h): 89%

CCOC(=O)c1cnn(CCN2CCC(c3noc(C(F)(F)F)n3)CC2)c1 [compound 459]
Test B disease control rating [1, 5]: 0* %
Test A disease control rating [2, 10]: 0%
Test C disease control rating [3, 10]: 0%

FC(F)(F)c1nc(-c2ccc(CN3CCC4(CC3)OCCO4)cc2)no1 [compound 149]
Test B disease control rating ([1]; test suspension 260 ppm): 72%
Test A disease control rating ([2]; test suspension 260 ppm): 100%
Test C disease control rating ([3]; test suspension 260 ppm): 100%

CCOC(=O)c1cnn(Cc2ccc(-c3noc(C(F)(F)F)n3)s2)c1 [compound 70]
Test B disease control rating ([1]; test suspension 255 ppm): 96%
Test A disease control rating ([2]; test suspension 255 ppm): 100%
Test C disease control rating ([3]; test suspension 255 ppm): 100%

FC(F)(F)c1nc(-c2ccc(Cn3cc4cc(Br)ccc4n3)cc2)no1 [compound 133]
Test B disease control rating ([1]; test suspension 255 ppm): 59%
Test A disease control rating ([2]; test suspension 255 ppm): 100%
Test C disease control rating ([3]; test suspension 255 ppm): 100%
